Experimental data as given in US8546392B2, “17Beta-hydroxysteroid dehydrogenase type 1 inhibitors for the treatment of hormone-related diseases” (Universitaet des Saarlandes, priority 2008, dated 2013).

Molecular target: 17β-HSD1 (Homo sapiens (Human), UniProt P14061)
Experiment: 17β-HSD1 test assay (recombinant protein from Sf9 insect cells, 3H-estrone/NADPH)
Assay type: biochemical
Conditions: for inhibition at 1 µM: read-out: HSD 1 μM (% inhibition of HSD1), inhibitor 1 μM; for inhibition at 0.1 µM: read-out: HSD1 100 nM (% inhibition), inhibitor 100 nM
Protocol: Recombinant protein obtained from Sf9 insect cells (0.1 μg/ml) is incubated with 20 mM KH2PO4, pH 7.4, 30 nM ^3H-estrone and 1 mM NADPH for 30 min at RT in the presence of the potential inhibitor in a concentration of 1 μM or 100 nM. The stock solutions of the compounds are prepared in DMSO (dimethylsulfoxide) so that the final concentration of DMSO in the sample is 1%. After the prescribed incubation time, the reaction is quenched by adding trichloroacetic acid (10% final concentration). The samples are centrifuged in microtitration plates at 400 rpm for 10 min, and the supernatants are charged on a reversed-phase HPLC equipped with a Waters Symmetrie C18 column and Waters Sentry Guard column. The isocratic HPLC run is performed at RT with a flow rate of 1 ml/min and acetonitrile/water 48:52 as the eluent. The radioactivity was measured by means of a Packard Flow Scintillation Analyzer. […]

Chain of 17β-HSD1 (P14061 whole entry): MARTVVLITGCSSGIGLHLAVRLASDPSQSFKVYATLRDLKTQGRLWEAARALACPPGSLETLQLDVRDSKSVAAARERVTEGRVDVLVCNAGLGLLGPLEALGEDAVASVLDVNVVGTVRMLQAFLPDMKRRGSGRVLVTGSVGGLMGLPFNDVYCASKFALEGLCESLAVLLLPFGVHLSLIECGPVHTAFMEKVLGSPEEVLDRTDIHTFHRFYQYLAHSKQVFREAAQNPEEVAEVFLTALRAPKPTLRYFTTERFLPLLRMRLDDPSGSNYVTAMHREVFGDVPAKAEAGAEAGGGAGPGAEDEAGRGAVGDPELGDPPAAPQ

Row | Structure (SMILES) | inhibition at 1 µM [%] | inhibition at 0.1 µM [%]
1 | O=C(CCc1cc(O)cc(-c2ccc3cc(O)ccc3c2)c1)Nc1ccccc1 [Compound 34, 3-[3-Hydroxy-5-(6-hydroxynaphthalene-2-yl)phenyl]-N-phenylpropionamide] | 13.6 | < 10
2 | O=C(O)c1cccc(-c2ccc3cc(O)ccc3c2)c1 [Compound 7, 3-(6-hydroxy-2-naphthyl)benzoic acid] | 75.8 | 36.3
3 | Oc1ccc(-c2cc(O)cc(-c3ccc4cc(O)ccc4c3)c2)cc1 [Compound 27, 5-(6-Hydroxy-2-naphthyl)-1,1′-biphenyl-3,4′-diol] | < 10 | < 10
4 | Oc1cccc(-c2ccc3c(O)cccc3c2)c1 [Compound 24, 6-(3-Hydroxyphenyl)-1-naphthol] | < 10 | < 10
5 | Nc1cccc(-c2ccc3cc(O)ccc3c2)c1 [Compound 23, 6-(3-Aminophenyl)-naphthalen-2-ol] | < 10 | < 10
6 | O=C(/C=C/c1cc(O)cc(-c2ccc3cc(O)ccc3c2)c1)Nc1ccccc1 [Compound 32, (E)-3-[3-Hydroxy-5-(6-hydroxynaphthalene-2-yl)phenyl]-N-phenylacrylamide] | 19.6 | < 10
7 | Oc1cccc(-c2ccc3ccccc3c2)c1 [Compound 3, 3-Naphthalene-2-ylphenol] | 61 | 26
8 | Oc1ccc2cc(-c3ccccc3O)ccc2c1 [Compound 18, 6-(2-Hydroxyphenyl)-2-naphthol] | < 10 | < 10
9 | Oc1ccc2cc(-c3cccs3)ccc2c1 [Compound 6] | < 10 | < 10
10 | CNC(=O)c1cc(O)cc(-c2ccc3cc(O)ccc3c2)c1 [Compound 29, 3-Hydroxy-5-(6-hydroxynaphthalen-2-yl)-N-methylbenzamide] | < 10 | < 10
11 | Oc1ccc(-c2ccc3cc(O)ccc3c2)cc1 [Compound 20, 6-(4-Hydroxyphenyl)-2-naphthol] | < 10 | < 10
12 | CC(=O)Nc1ccc(-c2ccc3cc(O)ccc3c2)cc1O [Compound 35, N-[2-Hydroxy-4-(6-hydroxy-2-naphthyl)phenyl]acetamide] | < 10 | < 10
13 | O=C(c1c(O)ccc2cc(-c3cccc(O)c3)ccc12)N1CCOCC1 [Compound 44, (2-Hydroxy-6-(3-hydroxyphenyl)naphthalene-1-yl)(morpholino)methanone] | 62.4 | 27.8
14 | O=C(Nc1nccs1)c1cccc(-c2c(O)ccc3cc(-c4cccc(O)c4)ccc23)c1 [Compound 71, 3-(2-Hydroxy-6-(3-hydroxyphenyl)naphthalene-1-yl)-N-(thiazol-2-yl)benzamide] | 74.7 | 66.4
15 | O=S(=O)(Nc1cccc(-c2c(O)ccc3cc(-c4cccc(O)c4)ccc23)c1)c1cc(F)c(Br)cc1F [Compound 89, 4-bromo-2,5-difluoro-N-{3-[2-hydroxy-6-(3-hydroxyphenyl)-1-naphthyl]phenyl}benzenesulfonamide] | 78.2 | 68
16 | O=S(=O)(Nc1cccc(-c2c(O)ccc3cc(-c4cccc(O)c4)ccc23)c1)c1cc(Br)c(Br)s1 [Compound 85, 4,5-dibromo-N-{3-[2-hydroxy-6-(3-hydroxyphenyl)-1-naphthyl]phenyl}thiophene-2-sulfonamide] | 77.7 | 54.5
17 | COc1ccc(-c2ccc3c(O)cccc3c2)cc1 [Compound 25, 6-(4-Methoxyphenyl)-1-naphthol] | < 10 | < 10
18 | O=S(=O)(Nc1cccc(-c2c(O)ccc3cc(-c4cccc(O)c4)ccc23)c1)c1cccc2cccnc12 [Compound 73, N-{3-[2-hydroxy-6-(3-hydroxyphenyl)-1-naphthyl]phenyl}quinoline-8-sulfonamide] | 80.5 | 71.2
19 | Cc1ccc(S(=O)(=O)c2c(O)ccc3cc(-c4cccc(O)c4)ccc23)cc1 [Compound 92] | 75 | 
20 | OCc1ccc(-c2ccc3cc(O)ccc3c2)cc1 [Compound 11, 6-[4-(hydroxymethyl)phenyl]-2-naphthol] | 12.9 | < 10
21 | CC(=O)Nc1ccc(S(=O)(=O)Nc2cccc(-c3c(O)ccc4cc(-c5cccc(O)c5)ccc34)c2)cc1 [Compound 79, N-(4-{3-[2-hydroxy-6-(3-hydroxyphenyl)-1-naphthyl]phenylsulfamoyl}phenyl)acetamide] | 80.2 | 73.8

Row | Structure (SMILES) | inhibition at 1 µM [%] | inhibition at 0.1 µM [%]
22 | Oc1cncc(-c2ccc3cc(O)ccc3c2)c1 [Compound 17, 5-(6-Hydroxynaphthalene-2-yl)pyridin-3-ol] | 57.7 | 30.3
23 | OCc1cccc(-c2ccc3cc(O)ccc3c2)c1 [Compound 10, 6-[3-(hydroxymethyl)-phenyl]-2-naphthol] | < 10 | < 10
24 | O=[N+]([O-])c1cccc(-c2ccc3cc(O)ccc3c2)c1 [Compound 22, 6-(3-Nitrophenyl)-naphthalene-2-ol] | < 10 | < 10
25 | O=C(c1c(O)ccc2cc(-c3cccc(O)c3)ccc12)N1CCCCC1 [Compound 51, (2-Hydroxy-6-(3-hydroxyphenyl)naphthalene-1-yl)(piperidin-1-yl)methanone] | 73.4 | 28.8
26 | Oc1cccc(-c2cnc3ccccc3c2)c1 [Compound 13, 3-(Quinolin-3-yl)phenol] | < 10 | < 10
27 | Oc1ccc(-c2cnc3cc(O)ccc3c2)cc1 [Compound 15, 3-(4-Hydroxyphenyl)quinolin-7-ol] | < 10 | < 10
28 | CSc1nccc(-c2ccc(S(=O)(=O)Nc3cccc(-c4c(O)ccc5cc(-c6cccc(O)c6)ccc45)c3)s2)n1 [Compound 80, N-{3-[2-hydroxy-6-(3-hydroxyphenyl)-1-naphthyl]phenyl}-5-[2-(methylsulfanyl)pyrimidin-4-yl]thiophene-2-sulfonamide] | 79.4 | 64.7
29 | CNC(=O)CCc1cc(O)cc(-c2ccc3cc(O)ccc3c2)c1 [Compound 33, 3-[3-Hydroxy-5-(6-hydroxynaphthalene-2-yl)phenyl]-N-methylpropionamide] | < 10 | < 10
30 | O=S(=O)(c1ccccc1)c1c(O)ccc2cc(-c3cccc(O)c3)ccc12 [Compound 91, 6-(3-Hydroxyphenyl)-1-(phenylsulfonyl)-2-naphthol] | 33 | 
31 | O=C(c1c(O)ccc2cc(-c3cccc(O)c3)ccc12)N1CCNCC1 [Compound 45, (2-Hydroxy-6-(3-hydroxyphenyl)naphthalene-1-yl)(piperazin-1-yl)methanone] | 44.5 | < 10
32 | O=C(Nc1ccccc1)c1cc(O)cc(-c2ccc3cc(O)ccc3c2)c1 [Compound 30, 3-Hydroxy-5-(6-hydroxynaphthalene-2-yl)-N-phenylbenzamide] | < 10 | < 10
33 | Cc1noc(NC(=O)c2c(O)ccc3cc(-c4cccc(O)c4)ccc23)c1C [Compound 47, N-(3,4-Dimethylisoxazol-5-yl)-2-hydroxy-6-(3-hydroxyphenyl)-1-naphthamide] | 70 | 43
34 | O=S(=O)(Nc1cccc(-c2c(O)ccc3cc(-c4cccc(O)c4)ccc23)c1)c1ccc2ncsc2c1 [Compound 86, N-{3-[2-hydroxy-6-(3-hydroxyphenyl)-1-naphthyl]-phenyl}-1,3-benzothiazole-6-sulfonamide] | 80.9 | 71.6
35 | Oc1cccc(-c2cnc3cc(O)ccc3c2)c1 [Compound 16, 3-(3-Hydroxyphenyl)quinolin-7-ol] | 56.9 | 24
36 | O=[N+]([O-])c1cc(S(=O)(=O)Nc2cccc(-c3c(O)ccc4cc(-c5cccc(O)c5)ccc34)c2)ccc1Cl [Compound 77, 4-chloro-N-{3-[2-hydroxy-6-(3-hydroxyphenyl)-1-naphthyl]phenyl}-3-nitrobenzenesulfonamide] | 79.9 | 73.2
37 | CC(=O)Nc1cccc(-c2ccc3cc(O)ccc3c2)c1 [Compound 9, N-[3-(6-hydroxy-2-naphthyl)phenyl]acetamide] | 18.5 | < 10
38 | Oc1ccc2cc(-c3cccnc3)ccc2c1 [Compound 4, 3-(6-hydroxy-2-naphthyl)pyridine] | 31.6 | < 10
39 | CNC(=O)/C=C/c1cc(O)cc(-c2ccc3cc(O)ccc3c2)c1 [Compound 31, (E)-3-[3-Hydroxy-5-(6-hydroxynaphthalene-2-yl)phenyl]-N-methylacrylamide] | < 10 | < 10
40 | COC(=O)c1csc(S(=O)(=O)Nc2cccc(-c3c(O)ccc4cc(-c5cccc(O)c5)ccc34)c2)c1OC [Compound 78, methyl 5-{3-[2-hydroxy-6-(3-hydroxyphenyl)-1-naphthyl]phenylsulfamoyl}-4-methoxythiophene-3-carboxylate] | 79.2 | 63.7
41 | Oc1ccc(-c2cnc3ccccc3c2)cc1 [Compound 14, 4-(Quinolin-3-yl)phenol] | < 10 | < 10
42 | Oc1ccc2cc(-c3ccsc3)ccc2c1 [Compound 5] | < 10 | < 10
